Assay: xn = mol fraction of the nth substance listed
Details: 101 kPa, Liquid

CCOC(=O)CC(=O)OCC [diethyl 1,3-propanedioate] + CCCO
mass density [kg/m3]
Details	288.15 K	298.15 K	313.15 K	328.15 K
x1 = 0.1001	854.156	845.431	832.128	818.439
x1 = 0.2	891.858	882.638	868.577	854.173
x1 = 0.2999	923.874	914.254	899.629	884.69
x1 = 0.3501	938.229	928.438	913.567	898.431
x1 = 0.4001	951.433	941.51	926.45	911.123
x1 = 0.4499	963.765	953.71	938.475	922.986
x1 = 0.4999	975.313	965.148	949.737	934.134
x1 = 0.5446	985.016	974.758	959.257	943.524
x1 = 0.5997	996.235	985.888	970.245	954.437
x1 = 0.7003	1014.96	1004.46	988.638	972.67
x1 = 0.7998	1031.53	1020.94	1004.99	988.923
x1 = 0.8997	1046.55	1035.87	1019.84	1003.72
x1 = 1	1060.33	1049.6	1033.5	1017.34

CCOC(=O)CC(=O)OCC [diethyl 1,3-propanedioate] + CC(C)CO
mass density [kg/m3]
Details	288.15 K	298.15 K	313.15 K	328.15 K
x1 = 0.1	843.381	835.034	822.221	808.976
x1 = 0.2	877.394	868.517	854.953	841.015
x1 = 0.3	908.051	898.746	884.583	870.102
x1 = 0.35	922.305	912.816	898.402	885.344
x1 = 0.3999	935.772	926.126	911.47	896.55
x1 = 0.4495	948.602	938.806	923.966	908.867
x1 = 0.5001	961.044	951.116	936.085	920.835
x1 = 0.6001	984.156	973.999	958.66	943.14
x1 = 0.6999	1005.33	995.001	979.414	963.679
x1 = 0.8003	1025.06	1014.57	998.792	982.885
x1 = 0.9	1043.28	1032.67	1016.71	1000.67
x1 = 1	1060.33	1049.6	1033.5	1017.34

CCCO [propan-1-ol] + CCOC(=O)CC(=O)OCC
x2 = 0
Details	mass density [kg/m3]
288.15 K	809.009
298.15 K	800.973
313.15 K	788.687
328.15 K	775.974

CCOC(=O)CC(=O)OCC [diethyl 1,3-propanedioate] + CCO
mass density [kg/m3]
Details	288.15 K	298.15 K	313.15 K	328.15 K
x1 = 0.05	826.264	817.293	803.619	789.558
x1 = 0.0999	853.923	844.646	830.505	815.983
x1 = 0.1001	854.013	844.731	830.589	816.063
x1 = 0.15	878.005	868.468	853.941	839.005
x1 = 0.2001	899.1	889.366	874.536	859.351
x1 = 0.3	934.365	924.309	909.007	893.394
x1 = 0.4	962.806	952.511	936.881	920.983
x1 = 0.4498	974.929	964.533	948.801	932.802
x1 = 0.4999	986.037	975.577	959.71	943.637
x1 = 0.5501	996.293	985.767	969.837	953.695
x1 = 0.6001	1005.6	995.034	979.034	962.847
x1 = 0.6453	1013.44	1002.82	986.788	970.577
x1 = 0.6997	1022.16	1011.52	995.442	979.211
x1 = 0.7497	1029.61	1018.93	1002.83	986.588
x1 = 0.8496	1043.02	1032.31	1016.2	999.969
x1 = 0.8995	1049.08	1038.36	1022.25	1006.06
x1 = 1	1060.33	1049.6	1033.5	1017.34

— the NIST ThermoML archive (doi:10.1021/je100100n)
